In US12502434B2, “Compound comprising EZH2 inhibitor and E3 ligase binder and pharmaceutical composition for preventing or treating EZH2-associated disease comprising same as active ingredient” (DAEGU-GYEONGBUK MEDICAL INNOVATION FOUNDATION, priority 2019, dated 2025):
Where two headings read alike, the source gives them in different places.

How the values were obtained:
[1] = target: T1, EZH2 protein in LS174T cells (Homo sapiens, UniProt Q15910); assay: Proteolytic effect in colorectal cancer cells (Western blotting); format: cell-based
T1 construct: endogenous in cells; host or cells: LS174T
T1 sequence (Q15910 whole entry): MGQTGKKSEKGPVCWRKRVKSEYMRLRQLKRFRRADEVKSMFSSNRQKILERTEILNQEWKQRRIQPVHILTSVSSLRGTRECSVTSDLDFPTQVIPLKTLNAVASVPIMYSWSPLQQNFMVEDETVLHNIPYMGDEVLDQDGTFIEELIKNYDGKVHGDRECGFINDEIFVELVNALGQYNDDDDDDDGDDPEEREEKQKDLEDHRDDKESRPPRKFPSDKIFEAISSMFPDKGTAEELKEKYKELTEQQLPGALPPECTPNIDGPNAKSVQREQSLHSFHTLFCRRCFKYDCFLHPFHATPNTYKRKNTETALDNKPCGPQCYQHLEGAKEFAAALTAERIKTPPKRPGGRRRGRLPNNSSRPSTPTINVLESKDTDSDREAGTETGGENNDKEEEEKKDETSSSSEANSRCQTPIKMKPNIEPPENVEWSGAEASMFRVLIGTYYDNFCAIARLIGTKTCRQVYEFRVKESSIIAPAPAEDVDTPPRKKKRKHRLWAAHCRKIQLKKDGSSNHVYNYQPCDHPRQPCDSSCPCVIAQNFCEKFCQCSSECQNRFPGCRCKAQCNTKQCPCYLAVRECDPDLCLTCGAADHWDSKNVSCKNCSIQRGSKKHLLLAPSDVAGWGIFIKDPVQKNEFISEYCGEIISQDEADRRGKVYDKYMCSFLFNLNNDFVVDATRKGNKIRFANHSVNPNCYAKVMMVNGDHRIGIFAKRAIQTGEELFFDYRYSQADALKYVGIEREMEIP
T1 sequence (O75530 whole entry partner): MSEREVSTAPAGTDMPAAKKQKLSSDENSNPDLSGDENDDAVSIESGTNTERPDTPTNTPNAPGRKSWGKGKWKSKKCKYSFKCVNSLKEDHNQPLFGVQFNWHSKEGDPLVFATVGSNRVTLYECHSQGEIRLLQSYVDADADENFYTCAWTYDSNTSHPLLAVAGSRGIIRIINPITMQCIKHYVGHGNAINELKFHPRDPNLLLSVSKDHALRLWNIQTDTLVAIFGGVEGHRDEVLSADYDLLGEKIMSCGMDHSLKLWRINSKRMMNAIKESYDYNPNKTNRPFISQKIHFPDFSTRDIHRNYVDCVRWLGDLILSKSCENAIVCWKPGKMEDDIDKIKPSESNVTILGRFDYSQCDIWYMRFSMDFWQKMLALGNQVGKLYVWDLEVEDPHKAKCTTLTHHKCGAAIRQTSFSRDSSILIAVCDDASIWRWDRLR
T1 sequence (Q15022 whole entry partner): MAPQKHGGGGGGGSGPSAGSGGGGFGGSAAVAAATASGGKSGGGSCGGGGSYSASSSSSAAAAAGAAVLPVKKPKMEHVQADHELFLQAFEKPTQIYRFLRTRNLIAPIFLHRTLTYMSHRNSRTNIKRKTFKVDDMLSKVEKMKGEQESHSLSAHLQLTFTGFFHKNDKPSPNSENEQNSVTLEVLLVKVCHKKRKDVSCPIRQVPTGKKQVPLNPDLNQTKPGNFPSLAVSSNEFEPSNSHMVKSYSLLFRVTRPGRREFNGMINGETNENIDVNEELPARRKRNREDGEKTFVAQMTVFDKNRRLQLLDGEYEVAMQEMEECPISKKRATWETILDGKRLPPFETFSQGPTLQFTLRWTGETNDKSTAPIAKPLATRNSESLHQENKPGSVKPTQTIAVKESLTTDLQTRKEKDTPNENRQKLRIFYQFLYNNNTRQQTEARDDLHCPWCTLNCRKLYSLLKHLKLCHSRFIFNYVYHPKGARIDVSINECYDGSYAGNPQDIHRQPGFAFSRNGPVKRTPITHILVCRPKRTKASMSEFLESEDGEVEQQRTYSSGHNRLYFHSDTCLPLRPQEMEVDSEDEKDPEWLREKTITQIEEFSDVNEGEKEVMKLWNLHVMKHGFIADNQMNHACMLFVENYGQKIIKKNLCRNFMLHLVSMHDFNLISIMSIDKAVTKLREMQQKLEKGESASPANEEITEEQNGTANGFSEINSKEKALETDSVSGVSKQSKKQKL
Protocol: After 72 hours of the treatment, the cells were collected and lysed using RIPA buffer (50 mM Tris, pH 7.5, 150 mM NaCl, 1% Triton X-100, 0.1% SDS, […], 0.5% deoxycholate, and protease inhibitor cocktail), followed by sonication (30 sec on/30 sec off, 5 cycles) to prepare a cell lysate.

[2] = target: T2, HiBiT-EZH2 in EZH2-HiBiT HEK293T cells (Homo sapiens, UniProt Q15910); assay: EZH2 proteolytic activity using Nano-BiT assay system; format: cell-based; conditions: 72 hours, n = 3
T2 construct: endogenous in cells; host or cells: HEK293T (CRISPR/Cas9 HiBiT knock-in at the EZH2 locus)
T2 sequence (Q15910 whole entry): as the sequence (Q15910 whole entry) above
T2 sequence (O75530 whole entry partner): as the sequence (O75530 whole entry partner) above
T2 sequence (Q15022 whole entry partner): as the sequence (Q15022 whole entry partner) above
Protocol: In order to evaluate the EZH2 proteolytic activity of the compound according to the present invention, the following experiment was performed. Specifically, the CRISPR/Cas9 technique was used to construct a stable cell line of HiBiT-EZH2. […] After harvesting the cells, the cell solution was prepared at a concentration of 1 cell/100 ul, and 100 ul of the cell solution was dispensed into each well of a 96-well plate and seeded so that a single cell could proliferate in each well. After proliferating the cells for 2-3 weeks, some of the proliferated cells from one cell were recovered and gDNA was extracted. To confirm that the HiBiT sequence was correctly inserted into the EZH2 target, deep sequencing was performed to select the cells containing the HiBiT sequence, and after further verification through Sanger sequencing, the final EZH2-HiBiT HEK293T cells were obtained. 1×10^3 of the obtained cells were placed in a 96-well white plate, and after 18 hours of stabilization, each well was treated with the example compound at a final concentration of 1 μM. The control group was treated with the same concentration of DMSO which was used as the solvent of the example compound. After 72 hours of the treatment, an assay was performed using Nano-Glo HiBiT Lytic Detection System ([…], Promega). After removing the medium, 100 μL of lysis buffer, 1 μL of LgBiT protein and 1 μL of substrate buffer were added to each well. Then, the plate was reacted in a shaking incubator at 700 rpm for 2 minutes, and then the mixture of each well was pipetted to mix well. Thereafter, the plate was reacted at room temperature for 10 minutes while light was blocked, and luminescence was measured.

[3] = EZH2 protein, LS174T cells, 1 μM, 72 hours
[4] = EZH2 protein, LS174T cells, 1 uM, 72 hours, Western blotting

Row | Grade (percent value of the protein degradation when treated with 1 μM) [1, 3] | %, degradation at 1 uM [1, 4] [%] | Relative EZH2 degradation rate, 1 μM(%) Average [2] [%] | Compound | further results
1 | D (<25%) | 0 | – | CCN(c1cc(-c2ccc(CN3CCN(C(=O)c4cn(CCC(=O)N[C@H](C(=O)N5C[C@H](O)C[C@H]5C(=O)NCc5ccc(-c6scnc6C)cc5)C(C)(C)C)nn4)CC3)cc2)cc(C(=O)NCc2c(C)cc(C)[nH]c2=O)c1C)C1CCOCC1 [Example 47, (2S,4R)-1-((S)-2-(3-(4-(4-((3′-(((4,6-dimethyl-2-oxo-1,2-dihydropyridine-3-yl)methyl)carbamoyl)-5′-(ethyl(tetrahydro-2H-pyran-4-yl)amino)-4′-methyl-[1,1′-biphenyl]-4-yl)methyl)piperazine-1-carbonyl)-1H-1,2,3-triazole-1-yl)propanamido)-3,3-dimethylbutanoyl)-4-hydroxy-N-(4-(4-methylthiazole-5-yl)benzyl)pyrrolidine-2-carboxamide] | –
2 | D (<25%) | 5.74 | – | CCN(c1cc(-c2ccc(CN3CCN(C(=O)c4cn(CCCCC(=O)N[C@H](C(=O)N5C[C@H](O)C[C@H]5C(=O)NCc5ccc(-c6scnc6C)cc5)C(C)(C)C)nn4)CC3)cc2)cc(C(=O)NCc2c(C)cc(C)[nH]c2=O)c1C)C1CCOCC1 [Example 48, (2S,4R)-1-((S)-2-(5-(4-(4-((3′-(((4,6-dimethyl-2-oxo-1,2-dihydropyridine-3-yl)methyl)carbamoyl)-5′-(ethyl(tetrahydro-2H-pyran-4-yl)amino)-4′-methyl-[1,1′-biphenyl]-4-yl)methyl)piperazine-1-carbonyl)-1H-1,2,3-triazole-1-yl)pentanamido)-3,3-dimethylbutanoyl)-4-hydroxy-N-(4-(4-methylthiazole-5-yl)benzyl)pyrrolidine-2-carboxamide] | effect of degrading EZH2 protein when treated to colorectal cancer cells (in words) ([1]; LS174T cells): excellent effects
3 | – | – | – | CCN(c1cc(-c2ccc(CN3CCN(CC(=O)NCCCCCCNC(=O)[C@H](CC(C)C)NC(=O)[C@@H](O)[C@H](N)Cc4ccccc4)CC3)cc2)cc(C(=O)NCc2c(C)cc(C)[nH]c2=O)c1C)C1CCOCC1 [Example 50, 4′-((4-(2-((6-((S)-2-((2S,3R)-3-amino-2-hydroxy-4-phenylbutanamido)-4-methylpentanamido)hexyl)amino)-2-oxoethyl)piperazine-1-yl)methyl)-N-((4,6-dimethyl-2-oxo-1,2-dihydropyridine-3-yl)methyl)-5-(ethyl(tetrahydro-2H-pyran-4-yl)amino)-4-methyl-[1,1′-biphenyl]-3-carboxamide] | %, degradation at 1 uM [1]: 0%; Grade (percent value of the protein degradation when treated with 1 μM) [1]: D (key: A: >75%; B: 50-75%; C: 25-50%; D: <25%)
4 | – | – | 27.8 | CCN(c1cc(-c2ccc(OCC(=O)NCCCCCCNc3cccc4c3C(=O)N(C3CCC(=O)NC3=O)C4=O)cc2)cc(C(=O)NCc2c(C)cc(C)[nH]c2=O)c1C)C1CCOCC1 (stereo not shown) [compound 1, reference compound] | –
5 | – | – | 16.2 | CCN(c1cc(-c2ccc(N3CCN(CC(=O)NCCCCCCNc4cccc5c4C(=O)N(C4CCC(=O)NC4=O)C5=O)CC3)cc2)cc(C(=O)NCc2c(C)cc(C)[nH]c2=O)c1C)C1CCOCC1 (stereo not shown) [compound 2, reference compound] | –

Row | Compound | Grade (percent value of the protein degradation when treated with 1 μM) [1, 3] | %, degradation at 1 uM [1, 4] [%] | Relative EZH2 degradation rate, 1 μM(%) Average [2] [%] | further results
6 | CCN(c1cc(-c2ccc(CN3CCN(CCNC(=O)CCOCCNc4cccc5c4C(=O)N(C4CCC(=O)NC4=O)C5=O)CC3)cc2)cc(C(=O)NCc2c(C)cc(C)[nH]c2=O)c1C)C1CCOCC1 (stereo not shown) [compound 3, reference compound] | – | – | 19.2 | –
